Tests used:
Experiment in all cases: Kinase profiling
Type in all cases: biochemical
TRKA = molecular target: T1, TRKA (Homo sapiens, UniProt P04629)
T1 construct: purchased ProQinase (Freiburg, Germany)
Experimental: (§1) The analysis was performed by ProQinase (Freiburg, Germany).

FGFR4 = molecular target: T2, FGFR4 (Homo sapiens, UniProt P22455)
T2 construct: purchased ProQinase (Freiburg, Germany)
Experimental: as §1

BRSK1 = molecular target: T3, BRSK1 (Homo sapiens, UniProt Q8TDC3)
T3 construct: purchased ProQinase (Freiburg, Germany)
T3 sequence (Q8TDC3 1-778): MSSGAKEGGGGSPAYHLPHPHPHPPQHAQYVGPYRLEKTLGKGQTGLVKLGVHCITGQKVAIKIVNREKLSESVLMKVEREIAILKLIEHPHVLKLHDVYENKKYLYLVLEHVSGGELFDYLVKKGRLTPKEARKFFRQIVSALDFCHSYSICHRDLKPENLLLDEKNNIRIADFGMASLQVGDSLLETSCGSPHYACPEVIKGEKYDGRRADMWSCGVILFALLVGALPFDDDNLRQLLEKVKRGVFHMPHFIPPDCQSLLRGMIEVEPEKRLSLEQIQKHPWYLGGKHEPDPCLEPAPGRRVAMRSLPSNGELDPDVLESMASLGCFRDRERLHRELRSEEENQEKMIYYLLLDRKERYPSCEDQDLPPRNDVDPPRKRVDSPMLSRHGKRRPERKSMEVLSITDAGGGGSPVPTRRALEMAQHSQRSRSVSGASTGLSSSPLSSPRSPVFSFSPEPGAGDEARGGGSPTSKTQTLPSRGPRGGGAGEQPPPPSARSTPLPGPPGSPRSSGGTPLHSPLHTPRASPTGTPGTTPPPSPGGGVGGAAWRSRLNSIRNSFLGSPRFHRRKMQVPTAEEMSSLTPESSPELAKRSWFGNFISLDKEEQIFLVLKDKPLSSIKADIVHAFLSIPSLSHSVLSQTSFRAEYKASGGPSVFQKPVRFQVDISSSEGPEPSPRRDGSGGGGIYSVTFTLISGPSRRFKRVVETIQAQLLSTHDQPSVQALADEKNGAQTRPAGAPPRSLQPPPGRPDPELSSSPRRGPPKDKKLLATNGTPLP
Experimental: as §1

GRK6 = molecular target: T4, GRK6 (Homo sapiens, UniProt P43250)
T4 construct: purchased ProQinase (Freiburg, Germany)
T4 sequence (P43250 whole entry): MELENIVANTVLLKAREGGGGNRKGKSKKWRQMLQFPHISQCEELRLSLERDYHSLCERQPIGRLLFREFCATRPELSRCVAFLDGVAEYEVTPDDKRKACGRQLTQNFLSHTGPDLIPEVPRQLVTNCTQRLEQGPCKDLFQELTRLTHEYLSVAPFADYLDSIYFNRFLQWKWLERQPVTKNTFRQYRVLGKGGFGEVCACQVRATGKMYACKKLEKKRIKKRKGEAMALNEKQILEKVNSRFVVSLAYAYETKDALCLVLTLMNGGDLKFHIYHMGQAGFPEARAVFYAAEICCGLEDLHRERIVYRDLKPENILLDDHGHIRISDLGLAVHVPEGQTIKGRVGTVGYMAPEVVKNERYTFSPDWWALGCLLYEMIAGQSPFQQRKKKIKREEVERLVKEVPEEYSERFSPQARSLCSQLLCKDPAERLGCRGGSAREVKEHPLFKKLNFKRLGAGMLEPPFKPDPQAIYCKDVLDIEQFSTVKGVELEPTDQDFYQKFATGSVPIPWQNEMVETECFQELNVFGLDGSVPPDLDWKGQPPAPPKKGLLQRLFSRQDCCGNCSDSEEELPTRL
Experimental: as §1

EPHB3 = molecular target: T5, EPHB3 (Homo sapiens, UniProt P54753)
T5 construct: purchased ProQinase (Freiburg, Germany)
T5 sequence (P54753 34-998): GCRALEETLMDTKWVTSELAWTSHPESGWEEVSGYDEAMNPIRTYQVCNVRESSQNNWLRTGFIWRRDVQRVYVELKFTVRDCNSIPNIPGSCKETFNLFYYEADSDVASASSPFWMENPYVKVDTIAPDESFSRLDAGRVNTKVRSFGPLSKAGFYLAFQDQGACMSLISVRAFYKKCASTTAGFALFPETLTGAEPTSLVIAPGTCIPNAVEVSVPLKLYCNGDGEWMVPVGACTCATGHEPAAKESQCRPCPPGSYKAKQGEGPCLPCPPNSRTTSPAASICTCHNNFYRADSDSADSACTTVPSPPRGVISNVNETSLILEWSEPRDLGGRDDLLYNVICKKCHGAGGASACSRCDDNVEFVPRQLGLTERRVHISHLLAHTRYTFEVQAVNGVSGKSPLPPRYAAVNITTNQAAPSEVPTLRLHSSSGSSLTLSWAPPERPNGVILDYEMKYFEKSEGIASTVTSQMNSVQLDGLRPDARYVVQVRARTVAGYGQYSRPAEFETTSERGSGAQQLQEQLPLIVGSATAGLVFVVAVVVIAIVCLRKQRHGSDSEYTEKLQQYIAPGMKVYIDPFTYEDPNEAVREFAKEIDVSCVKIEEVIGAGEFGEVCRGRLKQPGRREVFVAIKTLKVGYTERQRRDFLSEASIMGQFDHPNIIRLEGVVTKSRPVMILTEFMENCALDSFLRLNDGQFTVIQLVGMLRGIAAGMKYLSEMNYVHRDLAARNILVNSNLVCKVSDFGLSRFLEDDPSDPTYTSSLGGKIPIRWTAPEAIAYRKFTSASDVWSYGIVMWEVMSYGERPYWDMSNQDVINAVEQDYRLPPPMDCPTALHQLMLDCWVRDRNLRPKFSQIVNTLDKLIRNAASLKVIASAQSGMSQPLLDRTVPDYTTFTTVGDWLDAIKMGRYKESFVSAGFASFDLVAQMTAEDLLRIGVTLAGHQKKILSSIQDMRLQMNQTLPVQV
Experimental: as §1

CDK9/CycK = molecular target: T6, CDK9/CycK (Homo sapiens, UniProt P50750)
T6 construct: purchased ProQinase (Freiburg, Germany)
T6 sequence (P50750 whole entry): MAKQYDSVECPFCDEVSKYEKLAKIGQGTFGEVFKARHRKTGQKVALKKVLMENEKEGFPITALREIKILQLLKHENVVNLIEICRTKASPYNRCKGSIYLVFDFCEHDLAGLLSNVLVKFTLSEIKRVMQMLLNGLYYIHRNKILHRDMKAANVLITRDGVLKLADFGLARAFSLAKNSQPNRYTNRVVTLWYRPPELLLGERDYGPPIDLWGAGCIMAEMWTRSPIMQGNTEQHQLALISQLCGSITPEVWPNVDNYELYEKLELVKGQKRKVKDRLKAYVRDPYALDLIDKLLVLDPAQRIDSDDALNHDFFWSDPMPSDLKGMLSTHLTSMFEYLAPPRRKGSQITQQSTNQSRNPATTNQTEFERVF
T6 sequence (O75909 whole entry partner): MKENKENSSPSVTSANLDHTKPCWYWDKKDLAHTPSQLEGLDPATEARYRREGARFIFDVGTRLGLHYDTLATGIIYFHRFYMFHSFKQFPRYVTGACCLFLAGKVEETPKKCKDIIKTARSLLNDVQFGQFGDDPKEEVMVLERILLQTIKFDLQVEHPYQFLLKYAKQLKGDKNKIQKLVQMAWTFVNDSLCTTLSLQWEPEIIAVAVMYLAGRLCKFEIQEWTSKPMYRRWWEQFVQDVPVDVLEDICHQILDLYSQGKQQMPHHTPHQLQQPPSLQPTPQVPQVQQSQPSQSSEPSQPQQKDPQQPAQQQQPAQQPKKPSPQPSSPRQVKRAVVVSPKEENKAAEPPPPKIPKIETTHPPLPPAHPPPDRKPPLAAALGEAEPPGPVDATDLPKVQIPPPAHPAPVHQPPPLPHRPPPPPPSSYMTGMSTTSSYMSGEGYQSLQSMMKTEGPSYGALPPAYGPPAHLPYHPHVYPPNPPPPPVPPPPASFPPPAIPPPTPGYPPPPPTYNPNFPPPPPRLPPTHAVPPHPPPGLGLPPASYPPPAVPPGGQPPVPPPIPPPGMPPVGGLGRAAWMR
Experimental: as §1

IKKbeta = molecular target: T7, IKKbeta (Homo sapiens, UniProt O14920)
T7 construct: purchased ProQinase (Freiburg, Germany)
T7 sequence (O14920 1-756): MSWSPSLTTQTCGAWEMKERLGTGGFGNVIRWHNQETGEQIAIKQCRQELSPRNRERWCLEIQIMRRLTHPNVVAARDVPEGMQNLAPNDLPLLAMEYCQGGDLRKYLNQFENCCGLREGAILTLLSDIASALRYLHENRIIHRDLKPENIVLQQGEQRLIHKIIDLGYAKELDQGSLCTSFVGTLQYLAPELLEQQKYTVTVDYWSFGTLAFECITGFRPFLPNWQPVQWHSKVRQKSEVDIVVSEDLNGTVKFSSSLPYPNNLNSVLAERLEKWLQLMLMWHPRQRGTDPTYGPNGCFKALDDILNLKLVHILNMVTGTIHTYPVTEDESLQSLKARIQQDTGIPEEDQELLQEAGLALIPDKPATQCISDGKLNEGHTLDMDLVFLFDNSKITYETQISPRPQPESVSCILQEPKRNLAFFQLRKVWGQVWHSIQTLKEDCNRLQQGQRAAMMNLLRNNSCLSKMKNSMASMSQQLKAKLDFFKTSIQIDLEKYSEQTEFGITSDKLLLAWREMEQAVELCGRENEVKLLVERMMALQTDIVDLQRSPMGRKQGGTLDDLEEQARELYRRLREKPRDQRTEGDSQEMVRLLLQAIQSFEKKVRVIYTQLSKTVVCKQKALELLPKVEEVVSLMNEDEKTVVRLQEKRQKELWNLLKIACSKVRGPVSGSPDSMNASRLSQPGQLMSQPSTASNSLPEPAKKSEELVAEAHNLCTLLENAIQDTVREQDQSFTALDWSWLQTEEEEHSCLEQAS
Experimental: as §1

MST4 = molecular target: T8, MST4 (Homo sapiens, UniProt Q9P289)
T8 construct: purchased ProQinase (Freiburg, Germany)
T8 sequence (Q9P289 whole entry): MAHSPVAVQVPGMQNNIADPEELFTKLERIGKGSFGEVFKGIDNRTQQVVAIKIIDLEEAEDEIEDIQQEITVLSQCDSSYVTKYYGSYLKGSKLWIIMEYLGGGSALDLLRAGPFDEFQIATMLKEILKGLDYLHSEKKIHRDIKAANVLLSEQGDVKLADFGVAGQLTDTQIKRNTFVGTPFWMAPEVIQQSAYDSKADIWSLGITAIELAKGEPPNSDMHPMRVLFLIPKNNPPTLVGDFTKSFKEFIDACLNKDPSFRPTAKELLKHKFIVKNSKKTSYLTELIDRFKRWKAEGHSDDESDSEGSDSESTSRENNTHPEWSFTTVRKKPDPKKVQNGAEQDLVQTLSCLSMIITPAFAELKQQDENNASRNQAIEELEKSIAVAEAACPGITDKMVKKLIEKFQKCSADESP
Experimental: as §1

T2 sequence (P22455 22-802): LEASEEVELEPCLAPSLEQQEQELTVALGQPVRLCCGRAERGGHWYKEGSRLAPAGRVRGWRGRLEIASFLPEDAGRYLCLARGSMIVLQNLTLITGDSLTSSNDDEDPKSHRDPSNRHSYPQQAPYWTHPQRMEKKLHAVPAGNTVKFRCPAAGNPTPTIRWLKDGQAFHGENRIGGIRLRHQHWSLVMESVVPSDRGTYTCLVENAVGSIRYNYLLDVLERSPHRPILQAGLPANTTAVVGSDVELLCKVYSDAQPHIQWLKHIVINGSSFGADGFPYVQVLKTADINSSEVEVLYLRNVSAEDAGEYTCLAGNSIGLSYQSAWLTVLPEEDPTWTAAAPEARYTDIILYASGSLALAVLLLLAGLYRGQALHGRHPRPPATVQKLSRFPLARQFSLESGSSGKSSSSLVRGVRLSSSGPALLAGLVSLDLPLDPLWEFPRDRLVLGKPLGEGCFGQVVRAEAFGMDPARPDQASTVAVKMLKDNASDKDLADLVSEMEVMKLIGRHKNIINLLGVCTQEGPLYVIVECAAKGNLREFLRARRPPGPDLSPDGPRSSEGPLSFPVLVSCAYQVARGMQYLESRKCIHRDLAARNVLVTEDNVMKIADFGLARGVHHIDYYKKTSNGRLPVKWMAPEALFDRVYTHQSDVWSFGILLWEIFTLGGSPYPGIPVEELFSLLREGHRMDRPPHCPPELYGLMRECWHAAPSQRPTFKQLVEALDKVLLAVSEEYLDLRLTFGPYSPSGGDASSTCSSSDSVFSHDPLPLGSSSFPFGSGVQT
T1 sequence (P04629 33-796): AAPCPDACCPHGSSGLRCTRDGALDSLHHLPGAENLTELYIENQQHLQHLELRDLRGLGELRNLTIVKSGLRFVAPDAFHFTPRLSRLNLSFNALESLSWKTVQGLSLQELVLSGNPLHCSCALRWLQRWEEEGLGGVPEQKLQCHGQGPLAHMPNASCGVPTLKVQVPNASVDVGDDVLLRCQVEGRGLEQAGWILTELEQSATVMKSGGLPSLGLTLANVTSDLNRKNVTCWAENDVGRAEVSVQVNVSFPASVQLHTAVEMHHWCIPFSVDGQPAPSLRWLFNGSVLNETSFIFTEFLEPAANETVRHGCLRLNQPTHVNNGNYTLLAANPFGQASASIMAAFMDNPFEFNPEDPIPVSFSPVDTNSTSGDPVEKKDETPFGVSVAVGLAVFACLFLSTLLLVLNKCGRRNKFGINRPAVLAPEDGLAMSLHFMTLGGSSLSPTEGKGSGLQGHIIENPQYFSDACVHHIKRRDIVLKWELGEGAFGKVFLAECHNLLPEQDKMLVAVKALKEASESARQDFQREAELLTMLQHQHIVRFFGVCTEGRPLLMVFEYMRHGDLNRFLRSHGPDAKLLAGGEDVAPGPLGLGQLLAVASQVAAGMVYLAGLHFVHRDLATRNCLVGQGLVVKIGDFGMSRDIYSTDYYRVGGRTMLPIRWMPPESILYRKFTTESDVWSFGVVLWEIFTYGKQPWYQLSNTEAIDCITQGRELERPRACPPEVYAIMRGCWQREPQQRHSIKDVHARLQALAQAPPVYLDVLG

Structure (SMILES)	Residual activity (TRKA; 1.0E-05 M)	Residual activity (TRKA; 1.0E-06 M)	Residual activity (FGFR4; 1.0E-05 M)	Residual activity (FGFR4; 1.0E-06 M)	Residual activity (BRSK1; 1.0E-05 M)	Residual activity (BRSK1; 1.0E-06 M)	Residual activity (GRK6; 1.0E-05 M)	Residual activity (GRK6; 1.0E-06 M)	Residual activity (EPHB3; 1.0E-05 M)	Residual activity (EPHB3; 1.0E-06 M)	Residual activity (CDK9/CycK; 1.0E-05 M)	Residual activity (CDK9/CycK; 1.0E-06 M)	Residual activity (IKKbeta; 1.0E-05 M)	Residual activity (IKKbeta; 1.0E-06 M)	Residual activity (MST4; 1.0E-05 M)	Residual activity (MST4; 1.0E-06 M)
O=C(Nc1ccc(F)c(Nc2ccc3c(c2)CCCCC3=O)c1)c1cccc(F)c1 [Compound 109]	97 % of control	101 % of control	79 % of control	90 % of control	92 % of control	92 % of control	121 % of control	113 % of control	85 % of control	100 % of control	95 % of control	90 % of control	79 % of control	84 % of control	80 % of control	92 % of control
O=C(Cc1ccccc1)Nc1ccc(F)c(Nc2ccc3c(c2)CCCCC3=O)c1 [Compound 100]	94 % of control	107 % of control	67 % of control	96 % of control	91 % of control	101 % of control	114 % of control	117 % of control	69 % of control	100 % of control	89 % of control	91 % of control	99 % of control	110 % of control	82 % of control	90 % of control

Reference: paper PMC9030254, “Target Hopping from Protein Kinases to PXR: Identification of Small-Molecule Protein Kinase Inhibitors as Selective Modulators of Pregnane X Receptor from TüKIC Library” (Cells, 2022)
